# Patent US20100190794A1, “Herbicidally Active Composition” (BASF SE, priority 2007, published 2010)
# Experiments:
# ALOMY = test: greenhouse test, pre-emergence treatment; assay type: in vivo, Alopecurus myosuroides
# Text: (§1) The culture containers used were plastic pots containing loamy sand with approximately 3.0% of humus as substrate. The seeds of the test plants were sown separately for each species.
# (§2) For the pre-emergence treatment, the active compounds, suspended or emulsified in water, were applied directly after sowing by means of finely distributing nozzles. The containers were irrigated gently to promote germination and growth and subsequently covered with transparent plastic hoods until the plants had rooted. This cover caused uniform germination of the test plants unless this was adversely affected by the active compounds.
# (§3) Depending on the species, the plants were kept at 10-25° C. and 20-35° C., respectively. The test period extended over 2 to 4 weeks. During this time, the plants were tended and their response to the individual treatments was evaluated.
# (§4) Evaluation was carried out using a scale from 0 to 100. 100 means no emergence of the plants, or complete destruction of at least the above-ground parts, and 0 means no damage or normal course of growth. Good herbicidal activity is given at values of at least 70, and very good herbicidal activity is given at values of at least 85.
# (§5) The respective stated components A and B, and if appropriate, C were formulated as a 5% by weight or 10% by weight strength emulsion concentrate or a commercially available formulation of component B was used and, with addition of the amount of solvent system, introduced into the spray liquor used for applying the active compound. In the examples, the solvent used was water.
# (§6) The test period extended over 20 or 21 days. During this time, the plants were tended, and their reactions to the treatment with active compound was monitored.
# (§7) What was evaluated was the damage by the chemical compositions using a scale of from 0 to 100%, in comparison to the untreated control plants. 0 means no damage, and 100 means complete destruction of the plants.
# (§8) In the examples below, using the method of S. R. Colby (1967) “Calculating synergistic and antagonistic responses of herbicide combinations”, Weeds 15, p. 22 ff., the value E, which is expected if the activity of the individual active compounds is only additive, was calculated.
# (§9) where X=percent activity using active compound A at an application rate a; Y=percent activity using active compound B at an application rate b; E=expected activity (in %) by A+B at application rates a+b.
# (§10) If the value found in experiments is higher than the value E calculated according to Colby, a synergistic effect is present.
# SETVI = test: greenhouse test, post-emergence treatment; assay type: in vivo, Setaria viridis; settings: 125 g/ha a.s., Use Example 18
# Procedure: as §1
# (§11) For the post-emergence treatment, the test plants were grown to a plant height of from 3 to 15 cm, depending on the plant habit, and only then treated with the active compounds which had been suspended or emulsified in water. To this end, the test plants were either sown directly and grown in the same containers, or they were first grown separately as seedlings and transplanted into the test containers a few days prior to treatment.
# as §3, §4, §5, §6, §7, §8, §9, §10
# APESV = test: greenhouse test, pre-emergence treatment; assay type: in vivo, Apera spica-venti; settings: 32 g/ha a.s., Use Example 21
# Text: as §1, §2, §3, §4, §5, §6, §7, §8, §9, §10
# LOLMU = test: greenhouse test, pre-emergence treatment; assay type: in vivo, Lolium multiflorum
# Text: as §1, §2, §3, §4, §5, §6, §7, §8, §9, §10
# LAMPU = test: greenhouse test, pre-emergence treatment; assay type: in vivo, Lamium purpureum; settings: 32 g/ha a.s., Use Example 21
# Text: as §1, §2, §3, §4, §5, §6, §7, §8, §9, §10
# DIGSA = test: greenhouse test, post-emergence treatment; assay type: in vivo, Digitaria sanguinalis; settings: 125 g/ha a.s., Use Example 18
# Procedure: as §1, §11, §3
# as §4, with “85. […]” for “85.”
# as §6
# What was evaluated was the damage by the chemical compositions using a scale of from 0 to 100%, in comparison to the untreated control plants. […]
# In the examples below, using the method of S. R. Colby (1967) “Calculating synergistic and antagonistic responses of herbicide combinations”, Weeds 15, p. 22 ff., the value E, which is expected if the activity of the individual active compounds is only additive, was calculated. […]
# as §10
structure (smiles),measurement,setting,value
"CC(C)N(C(=O)COc1nnc(C(F)(F)F)s1)c1ccc(F)cc1 [Flufenacet, reference compound]",Herbicidal action in % after 20 days against ALOMY,"ALOMY; 32 g/ha a.s., Use Example 21",70%
same,Herbicidal action in % after 20 days against ALOMY,"ALOMY; 62.5 g/ha a.s., Use Example 13",75%
same,Herbicidal action in % after 20 days against ALOMY,"ALOMY; 125 g/ha a.s., Use Example 13",90%
same,Herbicidal action in % after 20 days against SETVI,SETVI,70%
same,Herbicidal action in % after 20 days against APESV,APESV,95%
same,Herbicidal action in % after 20 days against LOLMU,"LOLMU; 32 g/ha a.s., Use Example 21",65%
same,Herbicidal action in % after 20 days against LOLMU,"LOLMU; 62.5 g/ha a.s., Use Example 13",40%
same,Herbicidal action in % after 20 days against LOLMU,"LOLMU; 125 g/ha a.s., Use Example 13",70%
same,Herbicidal action in % after 20 days against LAMPU,LAMPU,20%
same,Herbicidal action in % after 20 days against DIGSA,DIGSA,75%
